Measured values as given in US10526389B2, “Peptides and combinations of peptides for use in immunotherapy against lung cancer, including NSCLC and other cancers” (Immatics Biotechnologies GmbH, priority 2015, dated 2020).
Blank lines part the entries; values can stand above or below the substance they belong to.

Columns and labels:
MHC class I = test: MHC binding assay (UV-ligand exchange, ELISA); set-up: species or system human; settings: yield of UV-ligand exchange reaction
Excerpt: Candidate peptides for T cell based therapies according to the present invention were further tested for their MHC binding capacity (affinity). The individual peptide-MHC complexes were produced by UV-ligand exchange, where a UV-sensitive peptide is cleaved upon UV-irradiation, and exchanged with the peptide of interest as analyzed. Only peptide candidates that can effectively bind and stabilize the peptide-receptive MHC molecules prevent dissociation of the MHC complexes. To determine the yield of the exchange reaction, an ELISA was performed based on the detection of the light chain (62m) of stabilized MHC complexes. The assay was performed as generally described in Rodenko et al (Rodenko et al., 2006).
96 well MAXISorp plates (NUNC) were coated over night with 2 ug/ml streptavidin in PBS at room temperature, washed 4× and blocked for 1 h at 37° C. in 2% BSA containing blocking buffer. Refolded HLA-A*02:01/MLA-001 monomers served as standards, covering the range of 15-500 ng/ml. Peptide-MHC monomers of the UV-exchange reaction were diluted 100 fold in blocking buffer. Samples were incubated for 1h at 37° C., washed four times, incubated with 2 ug/ml HRP conjugated anti-62m for 1h at 37° C., washed again and detected with TMB solution that is stopped with […]. Absorption was measured at 450 nm. Candidate peptides that show a high exchange yield (preferably higher than 50%, most preferred higher than 75%) are generally preferred for a generation and production of antibodies or fragments thereof, and/or T cell receptors or fragments thereof, as they show sufficient avidity to the MHC molecules and prevent dissociation of the MHC complexes.

CD4+ T cells [1] = settings: 19 evaluable patients, prostate cancer-specific peptide vaccine (Feyerabend 2009; Widenmeyer 2008); cited from earlier work
CD4 T cells = test: In vivo immunogenicity in vaccinated patients, intracellular cytokine staining (ICS) of CD4 T cells; set-up: species or system human; settings: IMA950 peptides, 16 patients, study IMA950-101
Experimental: The T-cell proliferation analysis included 5 peptides with known in vivo immunogenicity as positive controls. The in vivo immunogenicity of these peptides was determined in blood samples of patients vaccinated with these peptides in clinical trials using intracellular cytokine staining (ICS) of CD4 T cells.
In principle, ICS assays analyze the quality of specific T cells in terms of effector functions. Therefore the peripheral mononuclear cells (PBMCs) were re-stimulated in vitro with the peptide of interest, a reference peptide and a negative control (here MOCK). Following the re-stimulated cells were stained for IFN-gamma, TNF-alpha, IL-2 and IL-10 production, as well as expression of the co-stimulatory molecule CD154. The counting of stained cells was performed on a flow cytometer (FIG. 5).

CD4+ T cells [2] = test: HLA class II T-cell proliferation assay (ProImmune, CFSE); type: cell-based, human; settings: for Number of positive donors: 21 donor samples, positive = over 0.02% stimulation above background; for Number of positive donors / Strength of response: mean in % above the background: 5 μM peptide; for Strength of response: mean in % above the background: CD4+ T-cell proliferation (CFSE)
Excerpt: The experiments as follows summarize the results of T-cell Proliferation Assays of selected MHC class II TUMAPs. Nine of 10 tested peptide antigens tested positive for immunogenicity. […] Individual peptide antigens stimulated the CD4+ T-cell proliferation in up to 6 donors. […] Thus, it can be concluded that the newly tested peptides also have a high potential to induce T-cell responses in vaccine trials.
In order to characterize selected peptides for their potential especially as vaccine candidates, their in vitro immunogenicity was determined by analysis of T-cell proliferation using a commercial T-cell Proliferation Assay from the company ProImmune.
Healthy donor CD8-depleted blood cells samples were tested with the selected peptides. The peptides that induce the proliferation of CD4+ T cells can potentially result in the development of a helper T-cell immune response, and therefore are considered to be immunogenic. The proliferation of CD4+ T cells was determined using carboxyfluorescein succinimidyl ester (CFSE) labelling. In proliferating cells, CFSE is distributed evenly to dividing cells. Thus, the proliferation can be measured as a decrease in CFSE fluorescence in the cells as analyzed.
Peripheral blood mononuclear cell (PBMC) samples from healthy human donors were selected from the ProImmune cell bank based on HLA-DRB1 allele expression. CD8^+ T-cells were depleted from donor blood samples prior to use to avoid a false-positive response. The remaining CD4^+ T cells were labelled with CFSE and subsequently incubated with 5 μM of each selected peptide. Each peptide was tested in six replicated wells. The background was measured on each plate in six unstimulated control wells.
After an incubation period of 7 days the cells were co-stained with anti-CD4 antibody and analyzed by flow cytometry. The degree of proliferation was determined by measuring a reduction in CFSE intensity.
The evaluation of flow cytometric data was performed using FlowJo Software (Tree Star, Inc.). The results of flow cytometric analysis were expressed as the ratio of the CD4^+ dim population to the total CD4^+ population. The degree of proliferation was expressed as percentage of stimulation above background, i.e. proportion of antigen stimulated CD4^+ CFSE dim cells minus the proportion of CD4^+ CFSE dim cells from unstimulated control wells. For each sample, a mean and the corresponding standard error of the mean (SEM) of the six replicates were calculated.
Donors were chosen by HLA-DRB1 allele expression. The other two HLA class II loci (DQ and DP) have not been included into the analysis. The interesting DRB1 alleles were selected according to the frequencies of predicted peptide binding based on […] algorithm (Rammensee et al., 1999). For HLA-DR, binding was defined by a […] binding prediction score equal or greater than 18. This threshold score for binding was defined based on the analysis of binding scores of known published promiscuous HLA-DR ligands (Table 24).
All DRB1 alleles with binding frequency over 20% over all selected peptides were requested to be included into the donor panel) by ProImmune. 4 other rare DRB1 alleles (DRB1*10:01, DRB1*16:01, DRB1*08:01, and DRB1*13:03) were requested additionally.
The antigen-stimulated proliferation of CD4^+ T cells was considered as an indicator of in vitro immunogenicity and was investigated in a commercially available T-cell Proliferation Assay from ProImmune. The degree of antigen-stimulated CD4^+ T-cell proliferation was expressed as a percentage of stimulation above background. A response over 0.02% stimulation above background with SEM=2 (i.e. values two standard errors greater than background) was considered to be positive.

Peptide exchange (MHC class I binding score) (MHC class I): +++ (50%-75% = +++)
Substance: 31 (SYLDKVRAL; listed as Homo sapiens) [compound 31]

Peptide exchange (MHC class I binding score) (MHC class I): +++ (50%-75% = +++)
Substance: 45 (KFLESKGYEF; listed as Homo sapiens) [compound 45]

Peptide exchange (MHC class I binding score) (MHC class I): +++ (50%-75% = +++)
Substance: 51 (NYLLESPHRF; listed as Homo sapiens) [compound 51]

Peptide exchange (MHC class I binding score) (MHC class I): +++ (50%-75% = +++)
Substance: 55 (IYPVKYTQTF; listed as Homo sapiens) [compound 55]

Peptide exchange (MHC class I binding score) (MHC class I): +++ (50%-75% = +++)
Substance: 60 (SYPAKLSFI; listed as Homo sapiens) [compound 60]

Peptide exchange (MHC class I binding score) (MHC class I): +++ (50%-75% = +++)
Substance: 80 (AYLKEVEQL; listed as Homo sapiens) [compound 80]

Substance: BIR-002: IMA950 class II peptide, positive control with known in vivo immunogenicity (TLGEFLKLDRERAKN; listed as Homo sapiens) [reference compound]
patients mounting a strong CD4+ T-cell response (CD4+ T cells [1]): 84%
immune response by vaccination (ICS) (CD4 T cells): 100%
Number of positive donors (CD4+ T cells [2]; 7 days): 3
strength of stimulation response on average, above the background (CD4+ T cells [2]; CD4+ CFSE dim cells minus unstimulated control): 0.24%
Strength of response: mean in % above the background (CD4+ T cells [2]; 7 days): 0.24%

Substance: CEA-006: IMA910 class II peptide, positive control with known in vivo immunogenicity (SPQYSWRINGIPQQHT; listed as Homo sapiens) [reference compound]
Number of positive donors (CD4+ T cells [2]; 7 days): 1
Strength of response: mean in % above the background (CD4+ T cells [2]; 7 days): 0.20%

Substance: COL1A2-001 (NKPSRLPFLDIAPLDIGGAD; listed as Homo sapiens)
Number of positive donors (CD4+ T cells [2]; 7 days): 2
Strength of response: mean in % above the background (CD4+ T cells [2]; 7 days): 0.48%

Substance: COL5A2-001 (VARLPIIDLAPVDVGGTD; listed as Homo sapiens)
Number of positive donors (CD4+ T cells [2]; 7 days): 2
Strength of response: mean in % above the background (CD4+ T cells [2]; 7 days): 0.21%

Substance: COL11A1-001 (EGDIQQFLITGDPKAAYDY; listed as Homo sapiens)
Number of positive donors (CD4+ T cells [2]; 7 days): 5
Strength of response: mean in % above the background (CD4+ T cells [2]; 7 days): 0.19%

Substance: FN1-002: selected HLA class II peptide antigen of the T-cell proliferation assay; probably the FN1 HLA-DR peptide SEQ ID No. 93 (SRPQAPITGYRIVYSPSV; listed as Homo sapiens)
tested positive for immunogenicity (antigen-stimulated CD4+ T-cell proliferation) (CD4+ T cells [2]; positive: >0.02% stimulation above background, 5 uM peptide, 7 days): exception

Substance: IGF2BP3-002 (KLYIGNLSENAAPS; listed as Homo sapiens)
Number of positive donors (CD4+ T cells [2]; 7 days): 3
Strength of response: mean in % above the background (CD4+ T cells [2]; 7 days): 0.40%

Substance: ITGB6-001 (NPVSQVEILKNKPLSVG; listed as Homo sapiens)
Number of positive donors (CD4+ T cells [2]; 7 days): 6
Strength of response: mean in % above the background (CD4+ T cells [2]; 7 days): 0.23%

Substance: LAMC2-003 (DAVQMVITEAQKVDTR; listed as Homo sapiens)
Number of positive donors (CD4+ T cells [2]; 7 days): 3
Strength of response: mean in % above the background (CD4+ T cells [2]; 7 days): 0.27%

Substance: LAMP3-002 (IQLIVQDKESVFSPR; listed as Homo sapiens)
Number of positive donors (CD4+ T cells [2]; 7 days): 5
Strength of response: mean in % above the background (CD4+ T cells [2]; 7 days): 0.25%

Substance: MET-005: IMA950 class II peptide, positive control with known in vivo immunogenicity (TFSYVDPVITSISPKYG; listed as Homo sapiens) [reference compound]
immune response by vaccination (ICS) (CD4 T cells): 100%
Number of positive donors (CD4+ T cells [2]; 7 days): 4
Strength of response: mean in % above the background (CD4+ T cells [2]; 7 days): 0.31%

Substance: MMP12-007 (LSADDIRGIQSLYGDPK; listed as Homo sapiens)
Number of positive donors (CD4+ T cells [2]; 7 days): 2
Strength of response: mean in % above the background (CD4+ T cells [2]; 7 days): 0.28%

Substance: MMP-001: IMA910 class II peptide, positive control with known in vivo immunogenicity (SQDDIKGIQKLYGKRS; listed as Homo sapiens) [reference compound]
Number of positive donors (CD4+ T cells [2]; 7 days): 2
Strength of response: mean in % above the background (CD4+ T cells [2]; 7 days): 0.09%

Substance: POSTN-002 (TNGVIHVVDKLLYPADT; listed as Homo sapiens)
Number of positive donors (CD4+ T cells [2]; 7 days): 2
Strength of response: mean in % above the background (CD4+ T cells [2]; 7 days): 0.39%

Substance: TGFBI-004: IMA910 class II peptide, positive control with known in vivo immunogenicity (TPPIDAHTRNLLRNH; listed as Homo sapiens) [reference compound]
Number of positive donors (CD4+ T cells [2]; 7 days): 2
Strength of response: mean in % above the background (CD4+ T cells [2]; 7 days): 0.19%
